Consider three compounds from patent US7528135B2, “Pyridine derivatives as H3 antagonists” (Hoffmann-La Roche Inc., priority 2004, dated 2009).

T1 sequence (Q9Y5N1 whole entry): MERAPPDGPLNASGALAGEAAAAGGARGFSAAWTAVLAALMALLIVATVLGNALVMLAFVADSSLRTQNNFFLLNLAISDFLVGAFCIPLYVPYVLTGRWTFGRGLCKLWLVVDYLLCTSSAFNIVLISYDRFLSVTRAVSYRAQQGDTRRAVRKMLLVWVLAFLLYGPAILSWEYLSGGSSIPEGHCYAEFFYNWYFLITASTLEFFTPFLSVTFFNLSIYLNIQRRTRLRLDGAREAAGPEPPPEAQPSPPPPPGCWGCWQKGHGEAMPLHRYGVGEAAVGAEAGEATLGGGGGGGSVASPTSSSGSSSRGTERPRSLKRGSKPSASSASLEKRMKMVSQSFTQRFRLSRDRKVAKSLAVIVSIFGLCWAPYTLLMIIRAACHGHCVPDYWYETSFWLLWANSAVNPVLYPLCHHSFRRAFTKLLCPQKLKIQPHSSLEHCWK

The experiment has as its target T1, histamine 3 receptor (H3R) (Homo sapiens, UniProt Q9Y5N1).
T1 construct: expressed in transfected cells; host or cells: CHO cells (HR3-CHO cell line), membrane preparation
Put plainly: Binding assay with 3H-(R)α-methylhistamine (competition binding, human HR3-CHO membranes). Conditions: competition against 3H(R)α-Methylhistamine (1 nM = Kd), membrane of the human HR3-CHO cell line; Ki calculated from IC50 by Cheng-Prusoff. On the procedure: Binding Assay with ^3H-(R)α-methylhistamine
Saturation binding experiments were performed using HR3-CHO membranes prepared as described in Takahashi, K, Tokita, S., Kotani, H. (2003) J. Pharmacol. Exp. Therapeutics 307, 213-218.
An appropriate amount of membrane (60 to 80 μg protein/well) was incubated with increasing concentrations of ^3H(R)α-Methylhistamine di-hydrochloride (0.10 to 10 nM). Non specific binding was determined using a 200 fold excess of cold (R)α-Methylhistamine dihydrobromide (500 nM final concentration). The incubation was carried out at room temperature (in deep-well plates shaking for three hours). The final volume in each well was 250 μl. The incubation was followed by rapid filtration on GF/B filters (pre-soaked with 100 μl of 0.5% PEI in Tris 50 mM shaking at 200 rpm for two hours). The filtration was made using a cell-harvester and the filter plates were then washed five times with ice cold washing buffer containing 0.5 M NaCl. After harvesting, the plates were dried at 55° C. for 60 min, then we added scintillation fluid (Microscint 40, 40 microl in each well) and the amount of radioactivity on the filter was determined in Packard top-counter after shaking the plates for two hours at 200 rpm at room temperature.
Binding Buffer: 50 mM Tris-HCl pH 7.4 and 5 mM MgCl2x6H2O pH 7.4. Washing Buffer: 50 mM Tris-HCl pH 7.4 and 5 mM MgCl2x6H2O and 0.5 M NaCl pH 7.4.
Indirect measurement of affinity of H3R inverse agonists: twelve increasing concentrations (ranging from 10 μM to 0.3 nM) of the selected compounds were always tested in competition binding experiments using membrane of the human HR3-CHO cell line. An appropriate amount of protein, e.g. approximately 500 cpm binding of RAMH at Kd, were incubated for 1 hour at room temperature in 250 μl final volume in 96-well plates in presence of ^3H(R)α-Methylhistamine (1 nM final concentration=Kd). […]
All compounds were tested at a single concentration in duplicates. […] Ki's were calculated from IC50 based on Cheng-Prusoff equation (Cheng, Y, Prusoff, W H (1973) Biochem Pharmacol 22, 3099-3108).
For `CCN1CCN(c2ccc(NC(=O)NCc3ccccc3)cn2)CC1` [Example 3, 1-benzyl-3-[6-(4-ethyl-piperazin-1-yl)-pyridin-3-yl]-urea], the Ki is 39 nM.

In the case of `CN(C)S(=O)(=O)Nc1ccc(N2CCN(C3CCCC3)CC2)nc1` [Example 34, N-[6-(4-cyclopentyl-piperazin-1-yl)-pyridin-3-yl]-diemethylaminosulfonamide], the Ki was 81 nM.

For `COc1ccc(CC(=O)Nc2ccc(N3CCN(C4CCCC4)CC3)nc2)cc1OC` [Example 53, N-[6-(4-cyclopentyl-piperazin-1-yl)-pyridin-3-yl]-2-(3,4-dimethoxy-phenyl)-acetamide], the Ki is 40 nM.

A word on the Ki: it is a measure of affinity in units of concentration, obtained from inhibition or displacement.
